Source: patent publication EP4806435A1, “DIHYDROCHROMENE-DERIVATIVE-CONTAINING THERAPEUTIC AGENT FOR CANCER” (Sumitomo Pharma Co., Ltd., priority 2023, dated 2025)

Test system: patients with recurrent malignant glioma classified as WHO grade III or IV
Experiment: Phase 1 dose-escalation clinical trial: safety (TEAEs, DLTs, MTD);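 also: dosing continued until unacceptable toxicity, consent withdrawal, loss to follow-up or investigator/sponsor decision, with cohorts of 1-6 patients per dose level and MTD estimated by BLRM from cumulative DLT data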
[1] = 20 mg (N=2), cutoff April 21, 2023
[2] = 20 mg QD (N=2), cutoff April 21, 2024
[3] = 40 mg (N=4), cutoff April 21, 2023
[4] = 40 mg QD (N=4), cutoff April 21, 2024
[5] = 80 mg (N=3), cutoff April 21, 2023
[6] = 80 mg QD (N=3), cutoff April 21, 2024
[7] = 120 mg (N=6), cutoff April 21, 2023
[8] = 120 mg QD (N=6), cutoff April 21, 2024
[9] = 180 mg (N=3), cutoff April 21, 2023
[10] = 180 mg QD (N=6), cutoff April 21, 2024

Method: Administration to each subject was continued until unacceptable toxicity occurred, consent was withdrawn, the subject was lost to follow-up, or discontinuation was determined by the investigator and/or the sponsor.
The present study consists of two parts: a dose-escalation part (Part 1) and a dose-expansion part (Part 2).
Each dose level was evaluated in cohorts of 1-6 patients. In all cohorts, administration of the investigational drug to the second and subsequent patients was permitted after completion of all safety assessments on Day 8 of Cycle 1 in the first patient. […] At dose level 2 in the dose-escalation part, at least three patients were required to be evaluated before escalation to a higher dose level. After completion of each cohort, the probability of observing a DLT at each dose level in the present study was updated using the BLRM based on cumulative data from the preceding cohorts, and the MTD was estimated.

CC1(C)Oc2cc(Cl)ccc2[C@@H]2OCC3(CCN(CCn4ccnc4)CC3)C[C@H]21 [Compound 1, (4'aR,10'bR)-8'-chloro-1-[2-(1H-imidazol-1-yl)ethyl]-5',5'-dimethyl-4'a,10'b-dihydro-2'H,4'H,5'H-spiro[piperidine-4,3'-pyrano[3,2-c][1]benzopyran] diphosphate]
Number of patients with any TEAE [1]: 2 (100) n (%)
TEAE: constipation [1]: 0 n (%)
TEAE: decreased appetite [1]: 0 n (%)
TEAE: decreased lymphocyte count [1]: 0 n (%)
TEAE: decreased neutrophil count [1]: 0 n (%)
TEAE: decreased platelet count [1]: 0 n (%)
TEAE: decreased white blood cell count [1]: 0 n (%)
TEAE: dry skin [1]: 1 (50.0) n (%)
TEAE: fall [1]: 0 n (%)
TEAE: headache [1]: 0 n (%)
TEAE: hypertrigly-ceridaemia [1]: 0 n (%)
TEAE: hyponatremia [1]: 0 n (%)
TEAE: increased alanine aminotransferase [1]: 1 (50.0) n (%)
TEAE: increased aspartate aminotransferase [1]: 1 (50.0) n (%)
TEAE: nausea [1]: 1 (50.0) n (%)
TEAE: seizure [1]: 1 (50.0) n (%)
TEAE: vomiting [1]: 0 n (%)
Number of Patients with Any TEAE [2]: 2 (100) n (%)
TEAE: Confusional state [2]: 0 n (%)
TEAE: Gait disturbance [2]: 0 n (%)
TEAE: Gastrointestinal disorder [2]: 0 n (%)
TEAE: Hiccups [2]: 0 n (%)
TEAE: Tremor [2]: 0 n (%)
TEAE: alopecia [2]: 0 n (%)
TEAE: constipation [2]: 0 n (%)
TEAE: decreased appetite [2]: 0 n (%)
TEAE: decreased lymphocyte count [2]: 0 n (%)
TEAE: decreased neutrophil count [2]: 0 n (%)
TEAE: decreased platelet count [2]: 0 n (%)
TEAE: diarrhea [2]: 0 n (%)
TEAE: dry skin [2]: 1 (50.0) n (%)
TEAE: fall [2]: 0 n (%)
TEAE: fatigue [2]: 0 n (%)
TEAE: headache [2]: 0 n (%)
TEAE: hypertrigly-ceridaemia [2]: 0 n (%)
TEAE: hyponatremia [2]: 0 n (%)
TEAE: increase in blood cholesterol [2]: 0 n (%)
TEAE: increased alanine aminotransferase [2]: 1 (50.0) n (%)
TEAE: increased aspartate aminotransferase [2]: 1 (50.0) n (%)
TEAE: maculopapular rash [2]: 0 n (%)
TEAE: nausea [2]: 1 (50.0) n (%)
TEAE: seizure [2]: 1 (50.0) n (%)
TEAE: vomiting [2]: 0 n (%)
dose-limiting toxicities (20 mg to 240 mg, cutoff April 21, 2023): No dose-limiting toxicities were observed at any dose level
serious TEAE: seizure (20 mg, 120 mg, and 180 mg groups, cutoff April 21, 2023): three
Number of patients with any TEAE [3]: 4 (100) n (%)
TEAE: constipation [3]: 1 (25.0) n (%)
TEAE: decreased appetite [3]: 1 (25.0) n (%)
TEAE: decreased lymphocyte count [3]: 2 (50.0) n (%)
TEAE: decreased neutrophil count [3]: 2 (50.0) n (%)
TEAE: decreased platelet count [3]: 2 (50.0) n (%)
TEAE: decreased white blood cell count [3]: 2 (50.0) n (%)
TEAE: dry skin [3]: 0 n (%)
TEAE: fall [3]: 1 (25.0) n (%)
TEAE: headache [3]: 1 (25.0) n (%)
TEAE: hypertrigly-ceridaemia [3]: 1 (25.0) n (%)
TEAE: hyponatremia [3]: 1 (25.0) n (%)
TEAE: increased alanine aminotransferase [3]: 1 (25.0) n (%)
TEAE: increased aspartate aminotransferase [3]: 2 (50.0) n (%)
TEAE: nausea [3]: 2 (50.0) n (%)
TEAE: seizure [3]: 1 (25.0) n (%)
TEAE: vomiting [3]: 1 (25.0) n (%)
Number of Patients with Any TEAE [4]: 4 (100) n (%)
TEAE: Confusional state [4]: 0 n (%)
TEAE: Gait disturbance [4]: 0 n (%)
TEAE: Gastrointestinal disorder [4]: 0 n (%)
TEAE: Hiccups [4]: 2 (50.0) n (%)
TEAE: Tremor [4]: 0 n (%)
TEAE: alopecia [4]: 1 (25.0) n (%)
TEAE: constipation [4]: 1 (25.0) n (%)
TEAE: decreased appetite [4]: 1 (25.0) n (%)
TEAE: decreased lymphocyte count [4]: 2 (50.0) n (%)
TEAE: decreased neutrophil count [4]: 2 (50.0) n (%)
TEAE: decreased platelet count [4]: 2 (50.0) n (%)
TEAE: diarrhea [4]: 0 n (%)
TEAE: dry skin [4]: 0 n (%)
TEAE: fall [4]: 1 (25.0) n (%)
TEAE: fatigue [4]: 1 (25.0) n (%)
TEAE: headache [4]: 1 (25.0) n (%)
TEAE: hypertrigly-ceridaemia [4]: 1 (25.0) n (%)
TEAE: hyponatremia [4]: 1 (25.0) n (%)
TEAE: increase in blood cholesterol [4]: 0 n (%)
TEAE: increased alanine aminotransferase [4]: 1 (25.0) n (%)
TEAE: increased aspartate aminotransferase [4]: 2 (50.0) n (%)
TEAE: maculopapular rash [4]: 0 n (%)
TEAE: nausea [4]: 2 (50.0) n (%)
TEAE: seizure [4]: 1 (25.0) n (%)
TEAE: vomiting [4]: 1 (25.0) n (%)
serious TEAE: disease progression (40 mg QD group, cutoff April 21, 2024): one
serious TEAE: disease progression (40 mg group, cutoff April 21, 2023): one
Number of patients with any TEAE [5]: 3 (100) n (%)
TEAE: constipation [5]: 0 n (%)
TEAE: decreased appetite [5]: 0 n (%)
TEAE: decreased lymphocyte count [5]: 0 n (%)
TEAE: decreased neutrophil count [5]: 2 (66.7) n (%)
TEAE: decreased platelet count [5]: 1 (33.3) n (%)
TEAE: decreased white blood cell count [5]: 1 (33.3) n (%)
TEAE: dry skin [5]: 0 n (%)
TEAE: fall [5]: 0 n (%)
TEAE: headache [5]: 1 (33.3) n (%)
TEAE: hypertrigly-ceridaemia [5]: 0 n (%)
TEAE: hyponatremia [5]: 1 (33.3) n (%)
TEAE: increased alanine aminotransferase [5]: 2 (66.7) n (%)
TEAE: increased aspartate aminotransferase [5]: 0 n (%)
TEAE: nausea [5]: 2 (66.7) n (%)
TEAE: seizure [5]: 0 n (%)
TEAE: vomiting [5]: 0 n (%)
Number of Patients with Any TEAE [6]: 3 (100) n (%)
TEAE: Confusional state [6]: 0 n (%)
TEAE: Gait disturbance [6]: 0 n (%)
TEAE: Gastrointestinal disorder [6]: 0 n (%)
TEAE: Hiccups [6]: 0 n (%)
TEAE: Tremor [6]: 0 n (%)
TEAE: alopecia [6]: 0 n (%)
TEAE: constipation [6]: 0 n (%)
TEAE: decreased appetite [6]: 0 n (%)
TEAE: decreased lymphocyte count [6]: 0 n (%)
TEAE: decreased neutrophil count [6]: 2 (66.7) n (%)
TEAE: decreased platelet count [6]: 1 (33.3) n (%)
TEAE: diarrhea [6]: 0 n (%)
TEAE: dry skin [6]: 0 n (%)
TEAE: fall [6]: 0 n (%)
TEAE: fatigue [6]: 0 n (%)
TEAE: headache [6]: 1 (33.3) n (%)
TEAE: hypertrigly-ceridaemia [6]: 0 n (%)
TEAE: hyponatremia [6]: 1 (33.3) n (%)
TEAE: increase in blood cholesterol [6]: 0 n (%)
TEAE: increased alanine aminotransferase [6]: 2 (66.7) n (%)
TEAE: increased aspartate aminotransferase [6]: 0 n (%)
TEAE: maculopapular rash [6]: 0 n (%)
TEAE: nausea [6]: 2 (66.7) n (%)
TEAE: seizure [6]: 0 n (%)
TEAE: vomiting [6]: 0 n (%)
Number of patients with any TEAE [7]: 6 (100) n (%)
TEAE: constipation [7]: 2 (33.3) n (%)
TEAE: decreased appetite [7]: 0 n (%)
TEAE: decreased lymphocyte count [7]: 0 n (%)
TEAE: decreased neutrophil count [7]: 1 (16.7) n (%)
TEAE: decreased platelet count [7]: 0 n (%)
TEAE: decreased white blood cell count [7]: 0 n (%)
TEAE: dry skin [7]: 1 (16.7) n (%)
TEAE: fall [7]: 1 (16.7) n (%)
TEAE: headache [7]: 2 (33.3) n (%)
TEAE: hypertrigly-ceridaemia [7]: 1 (16.7) n (%)
TEAE: hyponatremia [7]: 1 (16.7) n (%)
TEAE: increased alanine aminotransferase [7]: 2 (33.3) n (%)
TEAE: increased aspartate aminotransferase [7]: 1 (16.7) n (%)
TEAE: nausea [7]: 2 (33.3) n (%)
TEAE: seizure [7]: 1 (16.7) n (%)
TEAE: vomiting [7]: 2 (33.3) n (%)
Number of Patients with Any TEAE [8]: 6 (100) n (%)
TEAE: Confusional state [8]: 0 n (%)
TEAE: Gait disturbance [8]: 0 n (%)
TEAE: Gastrointestinal disorder [8]: 0 n (%)
TEAE: Hiccups [8]: 0 n (%)
TEAE: Tremor [8]: 0 n (%)
TEAE: alopecia [8]: 0 n (%)
TEAE: constipation [8]: 2 (33.3) n (%)
TEAE: decreased appetite [8]: 0 n (%)
TEAE: decreased lymphocyte count [8]: 0 n (%)
TEAE: decreased neutrophil count [8]: 1 (16.7) n (%)
TEAE: decreased platelet count [8]: 0 n (%)
TEAE: diarrhea [8]: 1 (16.7) n (%)
TEAE: dry skin [8]: 1 (16.7) n (%)
TEAE: fall [8]: 1 (16.7) n (%)
TEAE: fatigue [8]: 0 n (%)
TEAE: headache [8]: 2 (33.3) n (%)
TEAE: hypertrigly-ceridaemia [8]: 1 (16.7) n (%)
TEAE: hyponatremia [8]: 1 (16.7) n (%)
TEAE: increase in blood cholesterol [8]: 0 n (%)
TEAE: increased alanine aminotransferase [8]: 2 (33.3) n (%)
TEAE: increased aspartate aminotransferase [8]: 1 (16.7) n (%)
TEAE: maculopapular rash [8]: 0 n (%)
TEAE: nausea [8]: 2 (33.3) n (%)
TEAE: seizure [8]: 1 (16.7) n (%)
TEAE: vomiting [8]: 2 (33.3) n (%)
serious TEAE: aphasia (120 mg QD group, cutoff April 21, 2024): one
serious TEAE: aphasia (120 mg group, cutoff April 21, 2023): one
Number of patients with any TEAE [9]: 3 (100) n (%)
TEAE: constipation [9]: 1 (33.3) n (%)
TEAE: decreased appetite [9]: 1 (33.3) n (%)
TEAE: decreased lymphocyte count [9]: 1 (33.3) n (%)
TEAE: decreased neutrophil count [9]: 1 (33.3) n (%)
TEAE: decreased platelet count [9]: 1 (33.3) n (%)
TEAE: decreased white blood cell count [9]: 0 n (%)
TEAE: dry skin [9]: 0 n (%)
TEAE: fall [9]: 1 (33.3) n (%)
TEAE: headache [9]: 0 n (%)
TEAE: hypertrigly-ceridaemia [9]: 1 (33.3) n (%)
TEAE: hyponatremia [9]: 0 n (%)
TEAE: increased alanine aminotransferase [9]: 2 (66.7) n (%)
TEAE: increased aspartate aminotransferase [9]: 0 n (%)
TEAE: nausea [9]: 1 (33.3) n (%)
TEAE: seizure [9]: 1 (33.3) n (%)
TEAE: vomiting [9]: 1 (33.3) n (%)
Number of Patients with Any TEAE [10]: 6 (100) n (%)
TEAE: Confusional state [10]: 1 (16.7) n (%)
TEAE: Gait disturbance [10]: 1 (16.7) n (%)
TEAE: Gastrointestinal disorder [10]: 2 (33.3) n (%)
TEAE: Hiccups [10]: 0 n (%)
TEAE: Tremor [10]: 2 (33.3) n (%)
